Values joined by “and” are separate entries in the source; they are usually repeats but may differ in a detail not shown here. Equal values may be shown once. Inconclusive results and toxic doses are left out. Square brackets hold non-standard residues; d marks the D form. Peptide text beside a SMILES is read from it. * marks the point of attachment. ξ: configuration not given here. Cbz = O=C(OCc1ccccc1)*; ξL = CC(C)CC(N)C(=O)O; OBn = c1ccc(CO*)cc1
Test system: P388 leukemia ip, CD2F1 mice, survival T/C
Assay: NCI In Vivo Anticancer Drug Screen. Data for tumor model P388 Leukemia (intraperitoneal) in CD2F1 (CDF1) mice
Conditions: endpoint: median survival time, higher = longer survival
Summary of the method: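 Mice carrying the transplanted tumor received test compound or vehicle. Survival was recorded in each group, and the value is the treated-group measurement divided by that of the vehicle-treated control group.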

[1] = dose: 50.0 mg/kg/injection, schedule: Q01DX005 (ip), vehicle: saline
[2] = dose: 50.0 mg/kg/injection, schedule: Q01DX009 (ip), vehicle: saline with Tween-80
[3] = dose: 100.0 mg/kg/injection, schedule: Q01DX009 (ip), vehicle: saline with Tween-80
[4] = dose: 200.0 mg/kg/injection, schedule: Q01DX009 (ip), vehicle: saline with Tween-80
[5] = dose: 50.0 mg/kg/injection, schedule: Q01DX005 (ip), vehicle: saline with Tween-80
[6] = dose: 100.0 mg/kg/injection, schedule: Q01DX005 (ip), vehicle: saline with Tween-80
[7] = dose: 200.0 mg/kg/injection, schedule: Q01DX005 (ip), vehicle: saline with Tween-80
[8] = dose: 50.0 mg/kg/injection, schedule: Q01DX005 (ip), vehicle: Klucel (hydroxypropylcellulose) (HPC)
[9] = dose: 100.0 mg/kg/injection, schedule: Q01DX005 (ip), vehicle: Klucel (hydroxypropylcellulose) (HPC)
[10] = dose: 200.0 mg/kg/injection, schedule: Q01DX005 (ip), vehicle: Klucel (hydroxypropylcellulose) (HPC)
[11] = dose: 50.0 mg/kg/injection, schedule: Q04DX003 (ip), vehicle: saline with Tween-80
[12] = dose: 100.0 mg/kg/injection, schedule: Q04DX003 (ip), vehicle: saline with Tween-80
[13] = dose: 200.0 mg/kg/injection, schedule: Q04DX003 (ip), vehicle: saline with Tween-80
[14] = dose: 60.0 mg/kg/injection, schedule: Q01DX005 (ip), vehicle: saline with Tween-80
[15] = dose: 120.0 mg/kg/injection, schedule: Q01DX005 (ip), vehicle: saline with Tween-80
[16] = dose: 240.0 mg/kg/injection, schedule: Q01DX005 (ip), vehicle: saline with Tween-80

## CCCOc1cc2c(cc1C(C)(C)c1ccc(OC)cc1)OCO2
dose: 50.0 mg/kg/injection, schedule: Q01DX005 (ip), vehicle: saline + Tween-80 + alcohol
  T/C: 102 % of control
dose: 100.0 mg/kg/injection, schedule: Q01DX005 (ip), vehicle: saline + Tween-80 + alcohol
  T/C: 111 % of control
dose: 200.0 mg/kg/injection, schedule: Q01DX005 (ip), vehicle: saline + Tween-80 + alcohol
  T/C: 95 % of control

## CNc1nnnn1C
[1]
  T/C: 98 % of control
dose: 100.0 mg/kg/injection, schedule: Q01DX005 (ip), vehicle: saline
  T/C: 98 % of control
dose: 200.0 mg/kg/injection, schedule: Q01DX005 (ip), vehicle: saline
  T/C: 98 % of control

## CCN(CC)CCCC(C)Nc1cc(OC)c2nc(C)cc(Cl)c2c1OC (stereo not drawn)
[2]
  T/C: 87 % of control
[3]
  T/C: 87 % of control
[4]
  T/C: 95 % of control

## O=P(C(=S)Nc1ccccc1Cl)(c1ccccc1)c1ccccc1
dose: 50.0 mg/kg/injection, schedule: Q01DX009 (ip), vehicle: Klucel (hydroxypropylcellulose) (HPC)
  T/C: 100 % of control
dose: 100.0 mg/kg/injection, schedule: Q01DX009 (ip), vehicle: Klucel (hydroxypropylcellulose) (HPC)
  T/C: 91 % of control
dose: 200.0 mg/kg/injection, schedule: Q01DX009 (ip), vehicle: Klucel (hydroxypropylcellulose) (HPC)
  T/C: 90 % of control

## CC(C)CC(NC(=O)OCc1ccccc1)C(=O)NCC(=O)NCC(=O)OCc1ccccc1 (stereo not drawn) (Cbz-[ξL]-Gly-Gly-OBn)
[5]
  T/C: 105 % of control
[6]
  T/C: 105 % of control
[7]
  T/C: 102 % of control

## COC(=O)C1C(C(=O)OC)C2N(c3ccccc3)C=NN2C1C(=O)c1ccccc1 (stereo not drawn)
[5]
  T/C: 96 % of control
[6]
  T/C: 103 % of control
[7]
  T/C: 93 % of control

## Cc1ccc(CSCC(NC(=O)OC(C)(C)C)C(=O)O)cc1 (stereo not drawn)
[8]
  T/C: 104 % of control
[9]
  T/C: 97 % of control
[10]
  T/C: 92 % of control

## NNC1=Nc2cc3c(cc2C(=O)N2C[C@H](O)CC12)OCO3 (stereo partly drawn)
dose: 100.0 mg/kg/injection, schedule: Q01DX001 (ip), vehicle: saline with Tween-80
  T/C: 100 % of control
dose: 200.0 mg/kg/injection, schedule: Q01DX001 (ip), vehicle: saline with Tween-80
  T/C: 100 % of control
dose: 400.0 mg/kg/injection, schedule: Q01DX001 (ip), vehicle: saline with Tween-80
  T/C: 99 % of control

## COC1=C(OC)C(=O)C(CO)=CC1=O
dose: 7.5 mg/kg/injection, schedule: Q01DX005 (ip), vehicle: saline
  T/C: 104 % of control
dose: 15.0 mg/kg/injection, schedule: Q01DX005 (ip), vehicle: saline
  T/C: 87 % of control

## CNc1ccc(O)cc1
dose: 5.0 mg/kg/injection, schedule: Q01DX009 (ip), vehicle: saline sonified
  T/C: 100 % of control
dose: 10.0 mg/kg/injection, schedule: Q01DX009 (ip), vehicle: saline sonified
  T/C: 104 % of control
dose: 20.0 mg/kg/injection, schedule: Q01DX009 (ip), vehicle: saline sonified
  T/C: 100 % of control

## Cc1ccc(S(=O)(=O)N2CCCCN(S(=O)(=O)c3ccc(C)cc3)COC2)cc1
[8]
  T/C: 101 % of control
[9]
  T/C: 101 % of control
[10]
  T/C: 102 % of control

## O=C/C=C/c1cccc([N+](=O)[O-])c1
[2]
  T/C: 113 % of control
[3]
  T/C: 113 % of control
[4]
  T/C: 104 % of control

## Cc1cc(Cl)ccc1NC(=O)COc1ccc(Cl)cc1Cl
[11]
  T/C: 100 % of control
[12]
  T/C: 95 % of control
[13]
  T/C: 90 % of control

## Cc1ccc(S(=O)(=O)N/N=C/C(C)(c2ccccc2)c2ccccc2)cc1
dose: 25.0 mg/kg/injection, schedule: Q01DX009 (ip), vehicle: saline
  T/C: 92 % of control
dose: 50.0 mg/kg/injection, schedule: Q01DX009 (ip), vehicle: saline
  T/C: 99 % of control and 90 % of control
dose: 100.0 mg/kg/injection, schedule: Q01DX009 (ip), vehicle: saline
  T/C: 99 % of control and 94 % of control
dose: 200.0 mg/kg/injection, schedule: Q01DX009 (ip), vehicle: saline
  T/C: 97 % of control

## O=c1[nH]n(-c2ccccc2)c2ccccc12
dose: 12.5 mg/kg/injection, schedule: Q04DX003 (ip), vehicle: saline with Tween-80
  T/C: 94 % of control
dose: 25.0 mg/kg/injection, schedule: Q04DX003 (ip), vehicle: saline with Tween-80
  T/C: 90 % of control
[11]
  T/C: 90 % of control
[12]
  T/C: 95 % of control

## C/C(=N\NC(=S)N1CCN(c2ccccc2)CC1)c1cnccn1
dose: 1.56 mg/kg/injection, schedule: Q01DX005 (ip), vehicle: saline with Tween-80
  T/C: 103 % of control
dose: 3.13 mg/kg/injection, schedule: Q01DX005 (ip), vehicle: saline with Tween-80
  T/C: 105 % of control
dose: 6.25 mg/kg/injection, schedule: Q01DX005 (ip), vehicle: saline with Tween-80
  T/C: 111 % of control and 93 % of control
dose: 12.5 mg/kg/injection, schedule: Q01DX005 (ip), vehicle: saline with Tween-80
  T/C: 109 % of control

## O=C1NC(O)c2cc([N+](=O)[O-])ccc2O1 (stereo not drawn)
[5]
  T/C: 100 % of control and 107 % of control
[6]
  T/C: 102 % of control and 115 % of control
[7]
  T/C: 100 % of control and 120 % of control

## C[C@]12C=CC(=O)C=C1CC[C@@H]1[C@@H]2[C@@H](O)C[C@@]2(C)[C@H]1CC[C@]2(O)C(=O)COC(=O)CCC1CCCC1
[12]
  T/C: 104 % of control
[13]
  T/C: 100 % of control
dose: 400.0 mg/kg/injection, schedule: Q04DX003 (ip), vehicle: saline with Tween-80
  T/C: 91 % of control

## NC(=O)CCCNC(=O)CCC[c-]1[c-][c-][c-][c-]1.[Fe].[c-]1[c-][c-][cH-][c-]1
dose: 3.13 mg/kg/injection, schedule: Q01DX009 (ip), vehicle: other
  T/C: 102 % of control
dose: 6.25 mg/kg/injection, schedule: Q01DX009 (ip), vehicle: other
  T/C: 102 % of control
dose: 12.5 mg/kg/injection, schedule: Q01DX009 (ip), vehicle: other
  T/C: 99 % of control and 96 % of control
dose: 25.0 mg/kg/injection, schedule: Q01DX009 (ip), vehicle: other
  T/C: 123 % of control
dose: 50.0 mg/kg/injection, schedule: Q01DX009 (ip), vehicle: other
  T/C: 111 % of control and 118 % of control

## Cc1nc(Nc2ccccc2)c2c(C)c(C)[nH]c2n1
[14]
  T/C: 103 % of control
[15]
  T/C: 102 % of control
[16]
  T/C: 98 % of control

## Cn1cnc([N+](=O)[O-])c1[Se]c1nc(N)nc2c1ncn2C1OC(CO)C(O)C1O (stereo not drawn)
dose: 2.0 mg/kg/injection, schedule: Q01DX009 (ip), vehicle: distilled water + Tween-80
  T/C: 116 % of control
dose: 4.0 mg/kg/injection, schedule: Q01DX009 (ip), vehicle: distilled water + Tween-80
  T/C: 121 % of control
dose: 32.0 mg/kg/injection, schedule: Q01DX009 (ip), vehicle: distilled water + Tween-80
  T/C: 160 % of control
dose: 32.0 mg/kg/injection, schedule: Q01DX009 (ip), vehicle: water
  T/C: 175 % of control
dose: 64.0 mg/kg/injection, schedule: Q01DX009 (ip), vehicle: water
  T/C: 100 % of control

## CCCCN(CCCC)CC(O)c1c(OC)ccc2ccccc12 (stereo not drawn)
dose: 12.5 mg/kg/injection, schedule: Q01DX005 (ip), vehicle: saline
  T/C: 100 % of control
dose: 25.0 mg/kg/injection, schedule: Q01DX005 (ip), vehicle: saline
  T/C: 98 % of control
[5]
  T/C: 119 % of control
[1]
  T/C: 105 % of control

## CCN=C(C)C1=C(O)c2ccccc2C1=O
dose: 100.0 mg/kg/injection, schedule: Q04DX002 (ip), vehicle: saline with Tween-80
  T/C: 97 % of control
dose: 200.0 mg/kg/injection, schedule: Q04DX002 (ip), vehicle: saline with Tween-80
  T/C: 98 % of control
dose: 400.0 mg/kg/injection, schedule: Q04DX002 (ip), vehicle: saline with Tween-80
  T/C: 98 % of control

## Cc1cc(=O)n(-c2ccc(S(=O)(=O)N=C(N)N)cc2)c(C)c1C(=O)O
[5]
  T/C: 102 % of control
[6]
  T/C: 106 % of control
[7]
  T/C: 103 % of control

## O=C1c2cc([N+](=O)[O-])cc3cc([N+](=O)[O-])cc(c23)C(=O)N1CCNCCNCCNCCN1C(=O)c2cc([N+](=O)[O-])cc3cc([N+](=O)[O-])cc(c23)C1=O
dose: 12.5 mg/kg/injection, schedule: Q04DX002 (ip), vehicle: saline with Tween-80
  T/C: 112 % of control
dose: 25.0 mg/kg/injection, schedule: Q04DX002 (ip), vehicle: saline with Tween-80
  T/C: 121 % of control
dose: 50.0 mg/kg/injection, schedule: Q04DX002 (ip), vehicle: saline with Tween-80
  T/C: 122 % of control

## CCc1nc(N)nc(N)c1-c1ccc(Cl)c(N=CN(C)C)c1
[14]
  T/C: 102 % of control
[15]
  T/C: 108 % of control
[16]
  T/C: 108 % of control

## CCOC(=O)C(O)Cc1cnc2ccccc2n1 (stereo not drawn)
[5]
  T/C: 108 % of control
[6]
  T/C: 108 % of control
[7]
  T/C: 100 % of control

Source: PubChem BioAssay AID330 (DTP/NCI, 2004)
